Measurements reported in US20240018119A1, “CARBOXAMIDE DERIVATIVE AND PHARMACEUTICAL COMPOSITION COMPRISING SAME AS ACTIVE INGREDIENT FOR PREVENTING OR TREATING MENTAL ILLNESS” (DAEGU-GYEONGBUK MEDICAL INNOVATION FOUNDATION, priority 2020, published 2024).

Tests used:
Format in all cases: cell-based
dopamine transporter = biological target: T1, dopamine transporter (Homo sapiens, UniProt Q01959); test: Dopamine reuptake inhibition in transporter-transfected HEK-293 cells ([3H]-DA); details: for Triple reuptake inhibition (Ratio %) DAT: compound 1 μM, 20-30 nM [3H]-DA, relative to control without compound (100%), lower = more inhibition; for IC50: concentration at which Ratio % is 50%, 6 concentrations 1 nM to 1 μM, read-out: Triple reuptake inhibition (IC50, μM) DAT
T1 construct: expressed in transfected cells; host or cells: HEK-293
Outline: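 HEK-293 cells transfected with human DAT cDNA; compound preincubated 15 min at 37 °C in uptake buffer, then buffer containing 20-30 nM [3H]-DA added for 5 min at 37 °C. After ice-cold washes and SDS lysis, radioactivity expressed as % of untreated control; IC50 from six concentrations (1 nM–1 μM).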

[1] = biological target: T2, norepinephrine transporter (Homo sapiens, UniProt P23975); test: Norepinephrine reuptake inhibition in transporter-transfected HEK-293 cells ([3H]-NE); details: for Triple reuptake inhibition (Ratio %) NET: compound 1 μM, [3H]-NE, relative to control without compound (100%), lower = more inhibition; for IC50: concentration at which Ratio % is 50%, 6 concentrations 1 nM to 1 μM, read-out: Triple reuptake inhibition (IC50, μM) NET
T2 construct: expressed in transfected cells; host or cells: HEK-293

serotonin transporter = biological target: T3, serotonin transporter (Homo sapiens, UniProt P31645); test: Serotonin reuptake inhibition in transporter-transfected HEK-293 cells ([3H]-5-HT); details: for Triple reuptake inhibition (Ratio %) SERT: compound 1 μM, [3H]-5-HT, relative to control without compound (100%), lower = more inhibition; for IC50: concentration at which Ratio % is 50%, 6 concentrations 1 nM to 1 μM, read-out: Triple reuptake inhibition (IC50, μM) SERT
T3 construct: expressed in transfected cells; host or cells: HEK-293
T3 sequence (P31645 whole entry): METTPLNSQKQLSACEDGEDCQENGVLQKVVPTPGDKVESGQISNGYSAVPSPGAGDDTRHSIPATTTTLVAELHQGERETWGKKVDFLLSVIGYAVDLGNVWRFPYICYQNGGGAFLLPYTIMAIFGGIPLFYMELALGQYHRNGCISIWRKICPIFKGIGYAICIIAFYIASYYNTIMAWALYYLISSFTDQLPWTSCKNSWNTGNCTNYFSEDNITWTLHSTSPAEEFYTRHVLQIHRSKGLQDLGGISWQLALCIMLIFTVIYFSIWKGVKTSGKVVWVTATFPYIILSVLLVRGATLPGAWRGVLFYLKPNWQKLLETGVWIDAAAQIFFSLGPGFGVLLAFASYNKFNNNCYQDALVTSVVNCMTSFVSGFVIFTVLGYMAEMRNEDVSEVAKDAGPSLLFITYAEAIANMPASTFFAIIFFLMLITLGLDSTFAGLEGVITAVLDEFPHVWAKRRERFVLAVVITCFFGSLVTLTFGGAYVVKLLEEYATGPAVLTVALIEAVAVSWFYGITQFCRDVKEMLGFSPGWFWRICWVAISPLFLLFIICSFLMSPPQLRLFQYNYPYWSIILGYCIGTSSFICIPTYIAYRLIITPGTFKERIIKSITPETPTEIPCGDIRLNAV

T1 sequence (Q01959 whole entry): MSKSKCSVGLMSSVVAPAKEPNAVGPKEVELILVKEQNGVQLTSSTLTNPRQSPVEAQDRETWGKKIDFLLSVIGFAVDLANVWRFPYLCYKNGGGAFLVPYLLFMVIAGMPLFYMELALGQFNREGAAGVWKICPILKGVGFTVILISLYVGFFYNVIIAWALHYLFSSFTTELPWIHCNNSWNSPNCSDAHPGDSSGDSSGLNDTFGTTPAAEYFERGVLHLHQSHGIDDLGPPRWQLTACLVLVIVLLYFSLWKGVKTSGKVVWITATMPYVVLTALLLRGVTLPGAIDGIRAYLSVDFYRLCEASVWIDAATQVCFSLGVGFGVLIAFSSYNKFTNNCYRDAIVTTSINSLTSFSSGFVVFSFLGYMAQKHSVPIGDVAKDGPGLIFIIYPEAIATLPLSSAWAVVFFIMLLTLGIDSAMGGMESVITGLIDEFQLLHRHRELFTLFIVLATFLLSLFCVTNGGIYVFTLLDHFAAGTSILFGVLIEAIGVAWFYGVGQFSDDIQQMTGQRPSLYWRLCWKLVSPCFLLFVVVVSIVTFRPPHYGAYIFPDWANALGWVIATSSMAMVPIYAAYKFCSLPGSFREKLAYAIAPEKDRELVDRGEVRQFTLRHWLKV
T2 sequence (P23975 whole entry, species assumed): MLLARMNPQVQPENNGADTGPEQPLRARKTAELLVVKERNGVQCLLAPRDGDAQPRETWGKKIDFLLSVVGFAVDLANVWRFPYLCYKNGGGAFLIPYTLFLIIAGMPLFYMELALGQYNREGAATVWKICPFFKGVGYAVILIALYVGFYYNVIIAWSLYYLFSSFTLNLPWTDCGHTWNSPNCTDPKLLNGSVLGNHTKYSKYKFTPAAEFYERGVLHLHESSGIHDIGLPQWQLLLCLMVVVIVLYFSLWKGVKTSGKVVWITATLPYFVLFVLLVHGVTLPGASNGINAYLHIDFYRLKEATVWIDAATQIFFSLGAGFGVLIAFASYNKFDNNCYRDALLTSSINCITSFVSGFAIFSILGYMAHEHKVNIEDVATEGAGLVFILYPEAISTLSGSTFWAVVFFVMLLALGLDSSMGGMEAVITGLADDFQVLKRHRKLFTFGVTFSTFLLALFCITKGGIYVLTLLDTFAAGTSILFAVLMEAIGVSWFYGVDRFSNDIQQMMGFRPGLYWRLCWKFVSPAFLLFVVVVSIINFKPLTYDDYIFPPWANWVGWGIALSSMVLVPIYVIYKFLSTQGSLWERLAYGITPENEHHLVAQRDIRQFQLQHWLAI

SMILES	Triple reuptake inhibition (Ratio %) DAT (dopamine transporter) [%]	IC50 (dopamine transporter) [µM]	Triple reuptake inhibition (Ratio %) NET [1] [%]	Triple reuptake inhibition (Ratio %) SERT (serotonin transporter) [%]	IC50 (serotonin transporter) [µM]	IC50 [1] [µM]
O=C(NCCN1CCN(c2ccc(Cl)c(Cl)c2)CC1)c1cc2ccccc2[nH]1 [Example 24, N-(2-(4-(3,4-dichlorophenyl)piperazin-1-yl)ethyl)-1H-indol-2-carboxamide]	43.28	8.03	107.75	59.92	> 10	–
O=C(N[C@@H]1CC[C@@H](c2ccc(Cl)c(Cl)c2)c2ccccc21)c1cc2ccccc2[nH]1 [Example 62, N-((1R,4S)-4-(3,4-dichlorophenyl)-1,2,3,4-tetrahydronaphthalen-1-yl)-1H-indol-2-carboxamide]	79.43	–	144.33	94.51	–	–
O=C(NCCN1CCC(Cc2ccc(Cl)c(Cl)c2)CC1)c1cc2cc(F)ccc2[nH]1 [Example 51, N-(2-(4-(3,4-dichlorobenzyl)piperidin-1-yl)ethyl)-5-fluoro-1H-indol-2-carboxamide]	41.61	0.636	83.07	27.71	0.331	–
CCCCOc1ccc(C(=O)NCCN2CCC(c3c[nH]c4ccccc34)CC2)cc1 [Example 72, N-(2-(4-(1H-indol-3-yl)piperidin-1-yl)ethyl)-4-butoxybenzamide]	58.16	–	97.62	17.44	–	–
O=C(NCCN1CCC(Cc2ccc(Cl)c(Cl)c2)CC1)c1cc(Cl)cc(Cl)c1 [Example 10, 3,5-dichloro-N-(2-(4-(3,4-dichlorobenzyl)piperidin-1-yl)ethyl)benzamide]	44.72	4.29	76.85	37.57	–	14.3

Second part, the compound after the results:

Triple reuptake inhibition (Ratio %) DAT (dopamine transporter) [%]	IC50 (dopamine transporter) [µM]	Triple reuptake inhibition (Ratio %) NET [1] [%]	Triple reuptake inhibition (Ratio %) SERT (serotonin transporter) [%]	IC50 (serotonin transporter) [µM]	IC50 [1] [µM]	SMILES
117.41	–	105.84	67.98	–	–	O=C(NCCN1CCC(Cc2ccccc2)CC1)c1ccccn1 [Example 71, N-(2-(4-benzylpiperidin-1-yl)ethyl)picolinamide]
31.52	1.73	72.60	58.09	–	4.35	O=C(NCCN1CCC(Cc2ccccc2)CC1)c1cc2cc(Cl)ccc2[nH]1 [Example 31, N-(2-(4-benzylpiperidin-1-yl)ethyl)-5-chloro-1H-indol-2-carboxamide]
107.49	–	116.85	102.65	–	–	CC1(C(=O)NCCN2CCC(Cc3ccccc3)CC2)CC1 [Example 70, N-(2-(4-benzylpiperidine-1-yl)ethyl)-1-methylcyclopropanecarboxamide]
86.48	–	69.01	108.82	–	–	O=C(NC1(CN2CCC(Cc3ccccc3)CC2)CC1)c1cc2ccccc2[nH]1 [Example 53, N-(1-((4-benzylpiperidin-1-yl)methyl)cyclopropyl)-1H-indol-2-carboxamide]
12.3	0.171	31.85	48.50	0.525	0.371	N#Cc1ccc2[nH]c(C(=O)NCCN3CCC(Cc4ccccc4)CC3)cc2c1 [Example 41, N-(2-(4-benzylpiperidin-1-yl)ethyl)-5-cyano-1H-indol-2-carboxamide]
24.67	0.138	26.73	62.50	1.47	0.561	O=C(NCCN1CCC(Cc2ccccc2)CC1)c1cc2cc(F)ccc2[nH]1 [Example 49]
